Data from article PMC10017709, “Structural basis of selective cannabinoid CB2 receptor activation” (Nature Communications, 2023).

Test system: cisplatin-induced nephropathy
Assay: Cisplatin-induced nephropathy in wild type mice
Type: in vivo, C57BL/6J mice
Conditions: for BUN / CREA: 72 h; for BUN / CREA / HNE (HNE adducts, ELISA) / NT (protein nitration, ELISA) / IL1b expression (real-time PCR) / TNFa expression (real-time PCR): mean, n = 6; for HNE (HNE adducts, ELISA) / NT (protein nitration, ELISA) / IL1b expression (real-time PCR) / TNFa expression (real-time PCR): kidney; for HNE (HNE adducts, ELISA) / NT (protein nitration, ELISA): vehicle mean 1.0; for IL1b expression (real-time PCR) / TNFa expression (real-time PCR): vehicle mean 1.00
Procedure: Ten to twelve-week-old male/female C57BL/6J mice were obtained from The Jackson Laboratory (Bar Harbor, ME, USA). CB2R knockout mice (CB2R^−/−) and their wild-type littermates (CB2R^+/+) were developed as described previously and had been backcrossed to a C57BL/6J background. All animals were kept in a temperature-controlled environment (20–22 °C) with a 12 h light–dark cycle and were always allowed free access to food and water. All animal experiments reported in this manuscript complied with the National Institutes of Health “Guide for the Care and Use of Laboratory Animals” (NIH publication 86–23 revised 1985) and were approved by the Institutional Animal Care and Use Committee of the National Institute on Alcohol Abuse and Alcoholism (Bethesda, MD).
The well-established model of cisplatin-induced nephropathy was used[63]. Mice (CB2R^−/− and CB2R^+/+) were sacrificed 72 h after a single injection of cisplatin (cis-diamine platinum (II) dichloride (Sigma#P4394) 25 mg/kg i.p.; freshly dissolved in physiological saline) by cervical dislocation under deep anesthesia with 5% isoflurane, for collection of blood and tissue samples. LEI-102 was given i.p. or by oral gavage (p.o.) at 0.3, 3.0, and 10 mg/kg every day, starting 1.5 h before the cisplatin exposure. The drug was dissolved in a vehicle of DMSO:Tween 80:saline, 1:1:18. After administration of LEI‐102, mice were killed by cervical dislocation under deep anesthesia with 5% isoflurane, for collection of blood and tissue samples at the time described in the figure. The tetrad assay in mice has previously been described in detail.
Markers of kidney dysfunction (BUN and CREA), histopathology (PAS staining), immunostaining or ELISA for 3-nitrotyrosine (3-NT; Cell Biolabs #STA-305) and 4-hydroxynonenal (4-HNE; Cell Biolabs#STA-838), and real-time PCR (Primers from Qiagen, SYBER Green Vita Scientific#MEIF01301, High-Capacity cDNA Reverse Transcription Kit, Thermo Fisher Scientific#4368813) for inflammatory cytokines were performed as previously described. Tubular damage scores were determined based on the percentage of tubules showing epithelial necrosis where 0= normal; 1, <10%; 2, 10–25%; 3, 26–75%; 4, >75%. Tubular necrosis was defined as the loss of the proximal tubular brush border, blebbing of apical membranes, tubular epithelial cell detachment from the basement membrane, or intraluminal aggregation of cells and proteins. The morphometric examination was performed in a blinded manner. Ten fields were scored from each mouse kidneys at 200× magnification, and average scores were determined for each mouse. For final quantification graph, average tubular damage scores of six mice/group were plotted.

CC(C)CN1C(=O)CN(Cc2ccc(-c3ccc(F)c(CNC4CCOCC4)n3)cc2)C1=O [LEI-102, 1-(4-(5-fluoro-6-(((tetrahydro-2H-pyran-4-yl)amino)methyl)pyridin-2-yl)benzyl)-3-isobutylimidazolidine-2,4-dione]
BUN (Cis + LEI-102 i.p. 0.3 mg/kg every day): 143.0 mg/dL
CREA (Cis + LEI-102 i.p. 0.3 mg/kg): 1.6 mg/dL
BUN (Cis + LEI-102 i.p. 3 mg/kg): 32.8 mg/dL
CREA (Cis + LEI-102 i.p. 3 mg/kg): 0.7 mg/dL
BUN (Cis + LEI-102 i.p. 10 mg/kg): 24.8 mg/dL
CREA (Cis + LEI-102 i.p. 10 mg/kg): 0.6 mg/dL
BUN (Cis + LEI-102 p.o. 3 mg/kg): 53.5 mg/dL
CREA (Cis + LEI-102 p.o. 3 mg/kg): 1.0 mg/dL
BUN (Cis + LEI-102 p.o. 10 mg/kg): 31.8 mg/dL
CREA (Cis + LEI-102 p.o. 10 mg/kg): 0.53 mg/dL
lipid peroxidation and protein nitration in kidney (LEI-102 10 mg/kg by i.p. or p.o.): decreased
functional markers of cisplatin-induced kidney injury (serum creatinine, blood urea nitrogen) (LEI-102 p.o. or i.p., 72 h after cisplatin 25 mg/kg i.p.): dose-dependent attenuation
pro-inflammatory cytokines TNFα and IL1β elevated by cisplatin-induced injury (LEI-102 treated mice): attenuated
HNE (HNE adducts, ELISA) (Cis + LEI-102 i.p. 10 mg/kg): 2.7
NT (protein nitration, ELISA) (Cis + LEI-102 i.p. 10 mg/kg): 2.4
IL1b expression (real-time PCR) (Cis + LEI-102 i.p. 10 mg/kg): 1.90
TNFa expression (real-time PCR) (Cis + LEI-102 i.p. 10 mg/kg): 1.59
HNE (HNE adducts, ELISA) (Cis + LEI-102 p.o. 10 mg/kg): 2.4
NT (protein nitration, ELISA) (Cis + LEI-102 p.o. 10 mg/kg): 2.8
IL1b expression (real-time PCR) (Cis + LEI-102 p.o. 10 mg/kg): 2.71
TNFa expression (real-time PCR) (Cis + LEI-102 p.o. 10 mg/kg): 1.42
